# Patent US9409898B2, “Substituted pyrazole compounds as CRAC modulators” (LUPIN LIMITED, priority 2012, dated 2016)
# System: IL-2 secretion
# Experiment: Inhibition of IL-2 secretion in PHA-stimulated Jurkat T cells (ELISA)
# Assay type: cell-based
# Conditions: Homo sapiens, PHA stimulation, 20 to 24 hours, IL-2 by ELISA
# Protocol: The CRAC channel modulatory activity of the compounds were thus evaluated by measuring the secretion of IL-2 by antigen stimulated T-cells in vitro. Alternatively, such activity can also be evaluated by assay methods known to one skilled in the art.
# Inhibition of IL-2 secretion: Jurkat T cells were seeded at a density of 0.5 to 1 million cells per well in RPMI medium. Test compounds from this invention were added to the cells at different concentrations. This was followed by the addition of PHA, a T cell mitogen after 10 minutes. The cells were then incubated for 20 to 24 hours in a CO2 incubator at 37° C. After incubation with the compounds, cells were centrifuged, the supernatant was collected and processed for ELISA to quantitate the amount of IL-2 secreted. A commercial ELISA kit (R&D Systems, Inc. Minneapolis, Minn., USA) was used to estimate the IL-2 concentrations. Amount of IL-2 secreted by cells stimulated with PHA was considered as a 100% maximal signal and the decrease in amount of IL-2 secreted by cells treated with the test compounds was expressed as percent inhibition of the maximal signal. The dose response data was analyzed using 4-parametric sigmoidal dose response (variable slope) curve—fit.
row,SMILES,IC50 [nM]
1,"Cc1cccc(C(=O)Nc2ccc(-n3nc(-c4nn(C)c(=O)o4)cc3C(F)(F)F)cn2)c1C [Example 46, 2,3-Dimethyl-N-(5-(3-(4-methyl-5-oxo-4,5-dihydro-1,3,4-oxadiazol-2-yl)-5-(trifluoromethyl)-1H-pyrazol-1-yl)pyridin-2-yl)benzamide]",< 100
2,"Cn1nc(-c2cc(C(F)F)nn2-c2ccc(NC(=O)c3c(F)cccc3F)cn2)oc1=O [Example 4, N-(6-(3-(Difluoromethyl)-5-(4-methyl-5-oxo-4,5-dihydro-1,3,4-oxadiazol-2-yl)-1H-pyrazol-1-yl)pyridin-3-yl)-2,6-difluorobenzamide]",> 1000
3,"Cn1nc(-c2cc(C(F)F)nn2-c2ccc(NCc3c(F)cccc3F)cn2)oc1=O [Example 13, 5-(1-(5-((2,6-Difluorobenzyl)amino)pyridin-2-yl)-3-(difluoromethyl)-1H-pyrazol-5-yl)-3-methyl-1,3,4-oxadiazol-2(3H)-one]",> 1000
4,"CC1(C(N)=O)CC(c2cc(C(F)(F)F)n(-c3ccc(NC(=O)c4c(F)cccc4F)cn3)n2)=NO1 (centres unmarked) [Example 37, 3-(1-(5-(2,6-Difluorobenzamido)pyridin-2-yl)-5-(trifluoromethyl)-1H-pyrazol-3-yl)-5-methyl-4,5-dihydroisoxazole-5-carboxamide]",< 100
5,"CC1(CO)CC(c2cc(C(F)(F)F)n(-c3ccc(NC(=O)c4c(F)cccc4F)cn3)n2)=NO1 (centres unmarked) [Example 36, 2,6-Difluoro-N-(6-(3-(5-(hydroxymethyl)-5-methyl-4,5-dihydroisoxazol-3-yl)-5-(trifluoromethyl)-1H-pyrazol-1-yl)pyridin-3-yl)benzamide]",< 100
6,"Cn1nc(-c2cc(C(F)(F)F)n(-c3ccc(NC(=O)c4c(F)cccc4Cl)nc3)n2)oc1=O [Example 39, 2-Chloro-6-fluoro-N-(5-(3-(4-methyl-5-oxo-4,5-dihydro-1,3,4-oxadiazol-2-yl)-5-(trifluoromethyl)-1H-pyrazol-1-yl)pyridin-2-yl)benzamide]",< 100
7,"Cn1nc(-c2cc(CF)n(-c3ccc(NCc4c(F)cccc4F)cn3)n2)oc1=O [Example 5, 5-(1-(5-((2,6-Difluorobenzyl)amino)pyridin-2-yl)-5-(fluoromethyl)-1H-pyrazol-3-yl)-3-methyl-1,3,4-oxadiazol-2(3H)-one]",100 to 1000

# Further lines, results first:
row,IC50 [nM],SMILES
1,100 to 1000,"CN1N=C(c2cc(C(F)(F)F)n(-c3ccc(NCc4c(F)cccc4Cl)cn3)n2)C(C)(C)C1=O [Example 25, 1′-(5-((2-Chloro-6-fluorobenzyl)amino)pyridin-2-yl)-1,4,4-trimethyl-5′-(trifluoromethyl)-1H,1′H-[3,3′-bipyrazol]-5(4H)-one]"
2,100 to 1000,"CC(=O)N1N=C(c2cc(C(F)(F)F)n(-c3ccc(NCc4c(F)cccc4F)cn3)n2)OC1(C)C [Example 27, 1-(5-(1-(5-((2,6-Difluorobenzyl)amino)pyridin-2-yl)-5-(trifluoromethyl)-1H-pyrazol-3-yl)-2,2-dimethyl-1,3,4-oxadiazol-3(2H)-yl)ethanone]"
3,< 100,"Cc1cccc(F)c1C(=O)Nc1ccc(-n2nc(C3=NN(C)C(=O)C3(C)C)cc2C(F)(F)F)nc1 [Example 18, 2-Fluoro-6-methyl-N-(6-(1′,4′,4′-trimethyl-5′-oxo-5-(trifluoromethyl)-4′,5′-dihydro-1H,1′H-[3,3′-bipyrazol]-1-yl)pyridin-3-yl)benzamide]"
4,100 to 1000,"CC1(CO)CC(c2cc(C(F)(F)F)n(-c3ccc(NCc4c(F)cccc4Cl)cn3)n2)=NO1 (centres unmarked) [Example 34, (3-(1-(5-((2-Chloro-6-fluorobenzyl)amino)pyridin-2-yl)-5-(trifluoromethyl)-1H-pyrazol-3-yl)-5-methyl-4,5-dihydroisoxazol-5-yl)methanol]"
5,100 to 1000,"COC(=O)C1(C)CC(c2cc(C(F)(F)F)n(-c3ccc(NCc4c(F)cccc4Cl)cn3)n2)=NO1 (centres unmarked) [Example 7, Methyl 3-(1-(5-((2-chloro-6-fluorobenzyl)amino)pyridin-2-yl)-5-(trifluoromethyl)-1H-pyrazol-3-yl)-5-methyl-4,5-dihydroisoxazole-5-carboxylate]"
6,100 to 1000,"Cn1c(-c2cc(C(F)(F)F)n(-c3ccc(NCc4c(F)cccc4F)cn3)n2)noc1=O [Example 26, 3-(1-(5-((2,6-Difluorobenzyl)amino)pyridin-2-yl)-5-(trifluoromethyl)-1H-pyrazol-3-yl)-4-methyl-1,2,4-oxadiazol-5(4H)-one]"
7,< 100,"Cc1cc(-c2nn(C)c(=O)o2)nn1-c1ccc(NCc2c(F)cccc2F)cn1 [Example 32, 5-(1-(5-((2,6-Difluorobenzyl)amino)pyridin-2-yl)-5-methyl-1H-pyrazol-3-yl)-3-methyl-1,3,4-oxadiazol-2(3H)-one]"
